These results are taken from ChEMBL document CHEMBL5137057, “Small Carbohydrate Derivatives as Potent Antibiofilm Agents” (J Med Chem, 2022).

Test [1] in a line: Binding affinity to Lactobacillus reuteri Glucosyltransferase assessed as dissociation constant by SPR analysis. Also noted: species or system Limosilactobacillus reuteri. Background: In SPR one partner is held on a chip, and binding of the other changes the refractive index at the surface.
In test [2] the test system is Cutibacterium acnes. Description: Antibiofilm activity against Propionibacterium acnes LMG 16711 assessed as inhibition of biofilm formation at 0.01 % (w/v) incubated for 24 hrs by fluorescence based analysis. More on the design: scale not given: the % may be the effect or the level left. The format is functional.
In test [3] the test system is Cutibacterium acnes. Description: Antibiofilm activity against Propionibacterium acnes LMG 16711 assessed as inhibition of biofilm formation at 0.08 % (w/v) incubated for 24 hrs by fluorescence based analysis. The format is functional. More on the design: scale not given: the % may be the effect or the level left.
For a further test, the target named is Sortase A (Staphylococcus aureus, UniProt Q9S446). Description: Inhibition of Staphylococcus aureus ATCC 6538p Sortase A protease expressed in Escherichia coli BL21 expression system using Dabcyl-QALPETGEE-Edans as substrate incubated for 1 hr by FRET assay.
Chain of Sortase A (Q9S446 whole entry): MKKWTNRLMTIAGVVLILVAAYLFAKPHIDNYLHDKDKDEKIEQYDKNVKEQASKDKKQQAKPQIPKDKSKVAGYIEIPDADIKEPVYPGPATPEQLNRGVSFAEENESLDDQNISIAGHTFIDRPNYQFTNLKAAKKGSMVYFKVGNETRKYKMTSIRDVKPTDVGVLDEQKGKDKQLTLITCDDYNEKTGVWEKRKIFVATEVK
In test [4] the test system is Streptococcus mutans. Description: Prevention of Streptococcus mutans adherence at 0.1 mg/ml relative to control. The class given is functional.
Another test deals with Staphylococcus aureus. Description: Antibiofilm activity against Staphylococcus aureus USA300 assessed as inhibition of biofilm formation at 256 ug/ml measured after 24 hrs by crystal violet staining based assay relative to control. The class given is functional. The following applies: dose 256 µg/ml. More on the design: scale not given: the % may be the effect or the level left.

In test [5] the test system is Escherichia coli. In words: Antibiofilm activity against Escherichia coli UTI89. The format is functional, organism-based.
Test [6] deals with Type 1 fimbrin D-mannose specific adhesin (Escherichia coli K-12) (UniProt P08191). Description: Inhibition of Escherichia coli UTI89 FimH by hemagglutination assay.
Chain of Type 1 fimbrin D-mannose specific adhesin (Escherichia coli K-12) (P08191 whole entry): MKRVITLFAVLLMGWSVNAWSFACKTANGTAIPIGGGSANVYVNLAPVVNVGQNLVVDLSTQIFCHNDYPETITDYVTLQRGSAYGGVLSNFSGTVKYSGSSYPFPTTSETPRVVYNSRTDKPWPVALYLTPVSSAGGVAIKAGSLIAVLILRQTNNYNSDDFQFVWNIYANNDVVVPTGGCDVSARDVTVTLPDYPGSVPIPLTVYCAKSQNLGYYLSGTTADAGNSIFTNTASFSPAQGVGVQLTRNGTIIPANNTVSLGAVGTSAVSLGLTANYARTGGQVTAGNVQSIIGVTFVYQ
The test system of test [7] is Escherichia coli. In words: Antibiofilm activity against Escherichia coli UTI89 at 5 ug/ml incubated for 72 hrs by crystal violet staining based assay relative to control. The class given is functional. The following applies: dose 5 µg/ml.
In test [8] the test system is Pseudomonas aeruginosa. In words: Potentiation of tetracyclin-induced antibacterial activity against Pseudomonas aeruginosa MTCC 2488 biofilm at 410 ug/ml incubated for 24 hrs pretreated with compound followed by tetracyclin addition by congo red binding assay. As to conditions: dose 410 µg/ml. The class given is functional.
The subject of test [9] is Pseudomonas aeruginosa. Description: Antibacterial activity against Pseudomonas aeruginosa MTCC 2488 biofilm at 410 ug/ml incubated for 24 hrs by congo red binding assay. The class given is functional. The following applies: dose 410 µg/ml.
For test [10], the system named is Pseudomonas aeruginosa. In words: Potentiation of ciprofloxacin-induced antibacterial activity against Pseudomonas aeruginosa MTCC 2488 biofilm at 410 ug/ml incubated for 24 hrs pretreated with compound followed by ciprofloxacin addition by congo red binding assay. The format is functional. The following applies: dose 410 µg/ml.
Test [11] has as its system Aggregatibacter actinomycetemcomitans. Description: Antibacterial activity Actinobacillus actinomycetemcomitans ATCC 700685 assessed as bacterial growth inhibition incubated for 24 hrs by broth dilution assay. The class given is functional. For orientation: Dilution methods test growth across graded concentrations, often in twofold steps.
Another test has as its system Porphyromonas gingivalis. In words: Antibacterial activity Porphyromonas gingivalis ATCC 33277 assessed as bacterial growth inhibition incubated for 24 hrs by broth dilution assay. The class given is functional.
Another test addresses Lectin A (Photorhabdus laumondii subsp. laumondii, UniProt Q7N561). In words: Inhibition of Photorhabdus luminescens LecA expressed in Escherichia coli BL21(DE3) cells by fluorescence based analysis.
A short description of test [12]: Downregulation of c-di-GMP level in Pseudomonas aeruginosa PA14 planktonic cells harboring wspF gene mutation at 10 uM incubated for 24 hrs by HPLC method. The format is functional.
Test [13] can be described thus: Antibiofilm activity against Pseudomonas aeruginosa PA14 cocultured with Staphylococcus aureus ATCC 6538 assessed as inhibition of biofilm formation incubated for 24 hrs by crystal violet staining based microtiter plate method relative to control. The format is functional. Also noted: scale not given: the % may be the effect or the level left.
Test [14] concerns Pseudomonas aeruginosa. In words: Downregulation of c-di-GMP level in Pseudomonas aeruginosa PA14 harboring wspF gene mutation biofilm at 10 uM incubated for 24 hrs by HPLC method. The class given is functional.
Test [15] concerns Streptococcus mutans. Description: Prevention of Streptococcus mutans CLSM 001 adherence to sucrose-dependent glass surface at 1 to 2 mg/ml relative to control. The following applies: dose 1-2 mg/ml. The format is functional.
The subject of test [16] is Escherichia coli. Description: Antibiofilm activity against Escherichia coli UTI89 at 2.5 ug/ml incubated for 72 hrs by crystal violet staining based assay relative to control. The class given is functional. As to conditions: dose 2.5 µg/ml.

Molecules are shown by their SMILES. Converted amounts (≈) assume the structure as drawn.

Chain of Lectin A (Q7N561 whole entry): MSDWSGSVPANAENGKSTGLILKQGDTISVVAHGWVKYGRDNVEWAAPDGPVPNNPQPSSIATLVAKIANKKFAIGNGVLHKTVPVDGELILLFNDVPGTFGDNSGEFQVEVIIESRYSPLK

As usually defined, the Kd is the equilibrium constant for the complex coming apart. As to `C[C@H]1[C@H](Oc2ccc(/C=N/NC(=O)C3CCN(C(=O)OC(C)(C)C)CC3)cc2)O[C@H](CO)[C@@H](O)[C@@H]1O`, the Kd in [1] is 1600 µM.

Consider `CC(C)=CCc1c(O[C@@H]2O[C@H](CO)[C@@H](O)[C@H](O)[C@H]2O)cc(O)c2c(=O)c(O[C@@H]3O[C@H](CO)[C@@H](O)[C@H](O)[C@H]3O)c(-c3ccc(O)c(O)c3)oc12`, for which the Activity in the test on Cutibacterium acnes [2] is given as 40%; in the test with Cutibacterium acnes [3], 75%.

Usually IC50 stands for the concentration that inhibits the measured activity by half. Consider `CC[C@H](CCC(C)[C@H]1CC[C@H]2[C@@H]3CCC4C[C@@H](O[C@@H]5O[C@H](CO)[C@@H](O)[C@H](O)[C@H]5O)CC[C@]4(C)[C@H]3CC[C@]12C)C(C)C` (stereo not given in full), for which, on Sortase A, the IC50 is 31.6 µM.

In turn, `COc1cc(-c2[o+]c3cc(O[C@@H]4O[C@H](CO)[C@@H](O)[C@H](O)[C@H]4O)cc(O)c3cc2O[C@@H]2O[C@H](CO)[C@@H](O)[C@H](O)[C@H]2O)cc(OC)c1O` came in with an Activity in the test on Streptococcus mutans [4] of 60%.

As for `O=c1cc(-c2ccc(O)cc2)oc2cc(O)c([C@@H]3O[C@H](CO)[C@@H](O)[C@H](O)[C@H]3O)c(O)c12` [ISOVITEXIN], the Activity in the test with Staphylococcus aureus came out at 61%.

`Cc1cc(-c2ccc3ccn(CC(=O)Nc4cccnc4)c(=O)c3c2)ccc1O[C@H]1O[C@H](CO)[C@@H](O)[C@H](O)[C@@H]1O`: the IC50 in the test on Escherichia coli [5] was determined as 0.018 µM. For the same compound, the EC>90 in test [6] was 1 nM.

Consider `C[C@@H]1O[C@@H](O[C@@H]2[C@@H](O)[C@H](OCCc3ccc(O)c(O)c3)O[C@H](CO)[C@H]2OC(=O)/C=C/c2ccc(O)c(O)c2)[C@H](O)[C@H](O)[C@H]1O` [ACETOSIDE], for which the Activity with Escherichia coli [7] was 60%.

Turning to `C[C@@H]1O[C@@H](O[C@H]2[C@H](Oc3cc(O)c4c(c3)O[C@H](c3ccc(O)cc3)CC4=O)O[C@H](CO)[C@@H](O)[C@@H]2O)[C@H](O)[C@H](O)[C@H]1O` [NARINGIN], the Activity in the test with Pseudomonas aeruginosa [8] was found to be 73.76%; with Pseudomonas aeruginosa [9], 49.5%; in the test on Pseudomonas aeruginosa [10], 89.35%. Also, the MIC50 (in test [11]; with Porphyromonas gingivalis) was 9800 µg/mL (≈ 16.9 mM) throughout.

For the compound `OC[C@H]1O[C@H](OC[C@H]2O[C@H](O[C@]3(CO)O[C@H](CO)[C@@H](O)[C@@H]3O)[C@H](O)[C@@H](O)[C@@H]2O)[C@H](O)[C@@H](O)[C@H]1O` [RAFFINOSE], the IC50 at Lectin A came to 110 µM. For the same compound, the Activity turned out to be 47% in [12], 23% in test [13] and 59% with Pseudomonas aeruginosa [14].

Compound `O=c1c(O[C@@H]2OC[C@H](O)[C@H](O)[C@H]2O)c(-c2ccc(O)c(O)c2)oc2cc(O)cc(O)c12` [GUAJAVERIN] came in with an Activity in the test on Streptococcus mutans [15] of 83.7%.

With `CC(=O)O[C@@H]1[C@@H](O)[C@@H](O)[C@H](O[C@@H]2[C@@H](O)[C@H](OCCc3ccc(O)c(O)c3)O[C@H](CO)[C@H]2OC(=O)/C=C/c2ccc(O)c(O)c2)O[C@H]1C`, the Activity in the test with Escherichia coli [16] worked out at 77%.
